Experimental data from ChEMBL document CHEMBL1130302, “1-Arylsulfonyl-3-(-hydroxybenzyl)-1H-pyrroles, a novel class of anti-HIV-1 reverse transcriptase inhibitors” (Bioorg Med Chem Lett, 1997).

Legend:
[1] = tested on: Human immunodeficiency virus 1; assay: Concentration required to achieve 50% protection of MT-4 cells against the cytopathic effect of HIV-1; assay type: functional, organism-based; conditions: Human immunodeficiency virus 1, MT4
[2] = tested on: MT4; assay: Concentration required to reduce the viability of mock-infected MT-4 cells by 50%; assay type: functional; conditions: Homo sapiens
[3] = Selectivity index reported as ratio of CC50 to EC50; assay type: functional
[4] = target: Human immunodeficiency virus type 1 reverse transcriptase (Human immunodeficiency virus 1, UniProt Q72547); assay: Inhibition of HIV-1 recombinant reverse transcriptase

Compound	EC50 [1] [µM]	CC50 [2] [µM]	Ratio [3]	IC50 [4] [µM]	SI [3]
Cc1ccc(C(c2ccn(S(=O)(=O)c3ccccc3)c2)n2ccnc2)cc1 (stereo not given)	> 26	26			
O=S(=O)(c1ccccc1)n1ccc(C(O)c2ccccc2)c1 (stereo not given)	8	124	15		
Cc1ccccc1S(=O)(=O)n1ccc(C(O)c2ccc(Cl)cc2Cl)c1 (stereo not given)	1.7	> 200	> 117	27	
Cc1ccc(S(=O)(=O)n2cc(C(O)c3ccc(Cl)cc3Cl)cc2C(=O)OC(C)C)cc1 (stereo not given)	22	32	1.4		
O=C(c1ccn(S(=O)(=O)c2ccccc2)c1)c1ccc(Cl)cc1Cl	> 30	30			
Nc1ccc(Cl)cc1S(=O)(=O)n1ccc(C(O)c2ccccc2)c1 (stereo not given)	3.2	109	34	> 30	
O=C(c1ccc(Cl)cc1)c1ccn(S(=O)(=O)c2ccccc2)c1	> 26	26			
O=S(=O)(c1ccccc1)n1ccc(C(O)c2ccc(Cl)cc2)c1 (stereo not given)	9	66	7		
O=S(=O)(c1ccccc1)n1ccc(C(O)c2c(F)cccc2F)c1 (stereo not given)	48	100	2		
Cc1ccnc2c1NC(=O)c1cccnc1N2C1CC1 [NEVIRAPINE]		> 200			
Nc1ccc(S(=O)(=O)n2ccc(C(O)c3ccc(Cl)cc3Cl)c2)cc1 (stereo not given)	11	74	6.7		
Cc1ccc(S(=O)(=O)n2ccc(C(O)c3ccc(Cl)cc3Cl)c2)cc1 (stereo not given)	0.3	61	203	18	
O=C(c1ccccc1)c1ccn(S(=O)(=O)c2ccccc2)c1	> 32	32			
O=S(=O)(c1ccccc1)n1ccc(C(O)c2ccccc2F)c1 (stereo not given)	9.1	> 200	> 22		
O=S(=O)(c1ccccc1)n1ccc(C(c2ccccc2)n2ccnc2)c1 (stereo not given)	> 25	25			
Cc1cn([C@H]2C[C@H](N=[N+]=[N-])[C@@H](CO)O2)c(=O)[nH]c1=O [ZIDOVUDINE]	0.01	> 20			
O=S(=O)(c1ccccc1)n1ccc(C(c2ccc(Cl)cc2)n2ccnc2)c1 (stereo not given)	> 22	22			
O=[N+]([O-])c1ccc(S(=O)(=O)n2ccc(C(O)c3ccc(Cl)cc3Cl)c2)cc1 (stereo not given)	22	50	2.2		
Cc1ccc(S(=O)(=O)n2ccc(C(O)c3ccc(Cl)cc3Cl)c2)c(C)c1 (stereo not given)	0.3	60	200	< 1.1	

Compound	EC50 [1] [µM]	CC50 [2] [µM]	Ratio [3]	IC50 [4] [µM]	SI [3]
CC(C)c1ccc(S(=O)(=O)n2ccc(C(O)c3ccc(Cl)cc3Cl)c2)cc1 (stereo not given)	1.8	51	28	2.5	
CC(C)(C)c1ccc(S(=O)(=O)n2ccc(C(O)c3ccc(Cl)cc3Cl)c2)cc1 (stereo not given)	2.5	62		6.4	24
O=S(=O)(c1ccccc1)n1ccc(C(O)c2ccccc2Cl)c1 (stereo not given)	4.1	113	27.5	29.5	
CCOP(=O)(OCC)OP(=O)(OCC)OCC [ETHYL PYROPHOSPHATE]	7	740	106		
CC(C)OC(=O)c1cc(C(O)c2ccc(Cl)cc2Cl)cn1S(=O)(=O)c1ccc(Cl)cc1 (stereo not given)	> 28	28			
CC(=O)OC(c1ccn(S(=O)(=O)c2ccc(C)cc2)c1)c1ccc(Cl)cc1Cl (stereo not given)	9.8	100	10		
O=S(=O)(c1ccccc1)n1ccc(C(c2ccc(Cl)cc2Cl)n2ccnc2)c1 (stereo not given)	> 14	14			
Cc1ccc(C(=O)c2ccn(S(=O)(=O)c3ccccc3)c2)cc1	> 30	30			
CCOC(=O)c1cc(C(O)c2ccc(Cl)cc2Cl)cn1S(=O)(=O)c1cc(Cl)ccc1N (stereo not given)	16	29	1.8		
COC(c1ccn(S(=O)(=O)c2ccc(C)cc2)c1)c1ccc(Cl)cc1Cl (stereo not given)	> 82	82			
CCc1ccc(S(=O)(=O)n2ccc(C(O)c3ccc(Cl)cc3Cl)c2)cc1 (stereo not given)	1.5	71	47	22	
CCOC(=O)c1cc(C(O)c2ccc(Cl)cc2Cl)cn1S(=O)(=O)c1ccc(C)cc1 (stereo not given)	14	36	2.6		
CCOC(=O)c1cc(C(O)c2ccc(Cl)cc2Cl)cn1S(=O)(=O)c1cc(Cl)ccc1[N+](=O)[O-] (stereo not given)	> 14	14			
Cc1ccc(C(O)c2ccn(S(=O)(=O)c3ccccc3)c2)cc1 (stereo not given)	15	122	8		
O=S(=O)(c1ccc(Cl)cc1)n1ccc(C(O)c2ccc(Cl)cc2Cl)c1 (stereo not given)	4.4	96	21.8	17	
COc1ccc(C(O)c2ccn(S(=O)(=O)c3ccc(C)cc3)c2)cc1 (stereo not given)	15.7	> 200	> 12		
Cc1ccc(C(O)c2ccn(S(=O)(=O)c3ccc(C)cc3)c2)cc1 (stereo not given)	7.3	96	13	4.7	
CC(O)c1ccn(S(=O)(=O)c2cc(Cl)ccc2N)c1 (stereo not given)	> 95	95			
O=S(=O)(c1ccccc1)n1ccc(C(O)c2ccc(Cl)cc2Cl)c1 (stereo not given)	5	57	11	> 30	
